According to PMC11513842, “Development of an orally bioavailable CDK12/13 degrader and induction of synthetic lethality with AKT pathway inhibition” (Cell Reports Medicine, 2024):
Where two headings read alike, the source gives them in different places.

What was measured:
CDK12 and CDK13 = settings: VCaP cells
Experimental: After treatment of varying conditions, cell lysates were prepared using RIPA buffer (ThermoFisher Scientific) supplemented with cOmplete protease inhibitor cocktail tablets (Sigma-Aldrich). The Pierce BCA Protein Assay Kit ([…]) was used to determine the protein concentrations. Proteins with an equal amount from each sample were loaded on NuPAGE 3–8% Tris-Acetate or 4–12% Bis-Tris protein gels (ThermoFisher Scientific) and subsequently transferred to membranes, which were blocked using 5% nonfat milk. Following blocking at room temperature for 1 h, the membrane was further incubated with varying primary antibodies at 4°C overnight. HRP-conjugated secondary antibodies were used for detection, and membrane imaging was conducted using an Odyssey Fc Imager (LI-COR Biosciences).

VCaP cells = test: Cell viability assay (CellTiter-Glo, 5 days); assay type: cell-based, human
Experimental: Cells were seeded in 96-well plates and incubated at 37°C with 5% CO2 overnight. A series of compound dilutions were added into the cells. After 5 days incubation, cell proliferation was tested using the CellTiter-Glo assay (Promega) according to the manufacturer’s protocol. Luminescence was measured using the Infinite M1000 Pro plate reader (Tecan). Data analysis was conducted using GraphPad Prism software.

[1] = Pharmacokinetic profile in Sprague Dawley rats; assay type: in vivo, rat; settings: SD rats
[2] = tested on: castrated VCaP and 22Rv1 CDX models; test: Castrated VCaP and 22Rv1 CDX models, combination efficacy; assay type: in vivo, mouse; settings: YJ1206 p.o. 100 mg/kg 3x/week, uprosertib p.o. 15 mg/kg 5x/week
Experimental: (§1) Six-week-old male CB17SCID mice obtained from Charles River (Stock # 236), were used to establish subcutaneous tumors on both dorsal flanks. Tumor dimensions were measured biweekly using digital calipers, applying the formula (π/6) (L × W^2), where L and W represent tumor length and width, respectively. At the study conclusion, mice were euthanized, and tumors were excised and weighed. The University of Michigan Institutional Animal Care and Use Committee (IACUC) approved all in vivo studies.
(§2) For the VCaP castration-resistant tumor model, 3×10^6 VCaP cells were subcutaneously injected into both dorsal flanks of mice using a serum-free medium mixed with 50% Matrigel (BD Biosciences). Upon tumors reaching palpable size (∼200 mm^3), animals underwent castration. When tumors regrew to their pre-castration size, mice were randomized for treatment with 30 mg/kg YJ9069 or vehicle via intravenous injection or 100 mg/kg YJ1206 or vehicle, with or without 15 mg/kg uprosertib by oral gavage. […]
For the 22Rv1 castration-resistant tumor model, mice underwent castration and then 12 days of recovery. Subsequently, 1 × 10^6 22Rv1 cells were subcutaneously injected into both dorsal flanks using a serum-free medium with 50% Matrigel (BD Biosciences). […]

[3] = tested on: castrated VCaP xenograft (VCaP-CRPC); test: VCaP castration-resistant prostate cancer xenograft efficacy; assay type: in vivo, mouse; settings: castrated VCaP xenograft, 31 days; YJ1206 p.o. 100 mg/kg 3x/week, uprosertib p.o. 15 mg/kg 5x/week
Experimental: as §1
as §2, with “vehicle,” for “vehicle, with or without 15 mg/kg uprosertib by oral gavage.”

PC310 PDX = test: PC310 patient-derived xenograft efficacy; assay type: in vivo, mouse; settings: YJ1206 p.o. 100 mg/kg 3x/week, uprosertib p.o. 15 mg/kg 5x/week
Experimental: as §1
WA74 PDX model was developed at the University of Michigan during collection of a rapid autopsy case as part of the Michigan Legacy Tissue Program (MLTP). PC310 PDX model was obtained from Erasmus Medical Center, Rotterdam, the Netherlands. Both PDX lines were propagated in male CB17SCID mice by surgically implanting 2 mm^3 tumor fragments, coated with 100% Matrigel, into both flanks of mice. When tumors reached approximately 200 mm^3, mice were randomized into treatment groups. These groups received either 30 mg/kg YJ9069 via intravenous injection or 100 mg/kg YJ1206 by oral gavage, both administered three times per week, with or without 15 mg/kg uprosertib by oral gavage five days per week for 3–4 weeks. In accordance with IACUC guidelines, the maximum tumor size was limited to 2.0 cm in any dimension, and mice were euthanized if xenografts reached this endpoint.

[4] = VCaP cell viability, linker optimization, Figure S4B, read-out: VCaP IC50

**Q.** Which “CDK12/13 degradation (immunoblot)” value (CDK12 and CDK13) does the source give for O=C1CCC(N2C(=O)c3ccc(C=CC(=O)N4CCN(c5ccc(N(C(=O)NCc6ccccc6)C6CCC(Nc7ncc8ccccc8n7)CC6)cc5)CC4)cc3C2=O)C(=O)N1 (centres unmarked) [YJ1114] here?
**A.** significantly decreased CDK12/13 degradation and cell viability

**Q.** And the IC50 (VCaP cells; [4])?
**A.** 2020 nM

**Q.** With O=C1CCC(N2C(=O)c3ccc(-c4cccc(C(=O)N5CCN(c6ccc(N(C(=O)NCc7ccccc7)C7CCC(Nc8ncc9ccccc9n8)CC7)cc6)CC5)c4)cc3C2=O)C(=O)N1 (centres unmarked) [YJ1130] as the compound, how does the “CDK12/13 degradation (immunoblot)” value (CDK12 and CDK13) read?
**A.** significantly decreased CDK12/13 degradation and cell viability

**Q.** And the IC50 (VCaP cells; [4])?
**A.** 126 nM

**Q.** What does the source list for O=C1CCC(N2C(=O)c3ccc(N4CCC(N5CCN(c6ccc(N(C(=O)NCc7ccccc7)C7CCC(Nc8ncc9ccccc9n8)CC7)cn6)CC5)CC4)cc3C2=O)C(=O)N1 (centres unmarked) [YJ1205]?
**A.** AUC(0-) ([1]; i.v. 2.5 mg/kg): 10615.68 ng·h/mL; AUC(0-t) ([1]; i.v. 2.5 mg/kg): 10519.6 ng·h/mL; CL ([1]; i.v. 2.5 mg/kg): 3.9307 mL/min/kg; Cmax ([1]; i.v. 2.5 mg/kg): 4140 nM; T1/2 ([1]; i.v. 2.5 mg/kg): 3.81 h; Tmax ([1]; i.v. 2.5 mg/kg): 0.08 h; AUC(0-) ([1]; oral 10 mg/kg): 6842.8 ng·h/mL; AUC(0-t) ([1]; oral 10 mg/kg): 6679.0 ng·h/mL; Cmax ([1]; oral 10 mg/kg): 660 nM; T1/2 ([1]; oral 10 mg/kg): 4.2 h; Tmax ([1]; oral 10 mg/kg): 4.7 h; CDK12/13 degradation (immunoblot) (CDK12 and CDK13): potent degradation effects

**Q.** For O=C(NCc1ccccc1)N(c1ccc(N2CCNCC2)cc1)[C@H]1CC[C@H](Nc2ncc3ccccc3n2)CC1 [YJ9068], which “CDK12/13 degradation (immunoblot)” value (CDK12 and CDK13) is on record?
**A.** did not affect target protein levels

**Q.** And the IC50 (VCaP cells; VCaP cells, 5 days, Figure S1E, read-out: IC50)?
**A.** 1080 nM

**Q.** Which “CDK12/13 degradation (immunoblot)” value (CDK12 and CDK13) does the source give for O=C1CCC(N2C(=O)c3ccccc3C2=O)C(=O)N1 (centres unmarked) [thalidomide, reference compound] here?
**A.** did not affect target protein levels

**Q.** For Cn1ncc(Cl)c1-c1cc(C(=O)N[C@H](CN)Cc2ccc(F)c(F)c2)oc1Cl [uprosertib, reference compound], which anti-tumor efficacy [2] is on record?
**A.** moderate anti-tumor efficacy

**Q.** And the “progressive disease (PD), waterfall plot (RECIST)” value [3]?
**A.** 100%

**Q.** And the “progressive disease (PD), waterfall plot (RECIST)” value (PC310 PDX)?
**A.** 100%

**Q.** And the tumor growth inhibition (PC310 PDX)?
**A.** only moderate or mild tumor inhibition
